Values quoted from earlier work in US20230120480A1, “METHODS FOR REMOVING CONTAMINANTS FROM PLANT-DERIVED PHARMACEUTICALS” (priority 2021, published 2023).

What was measured:
[1] = permissible limit of the pesticide in Cannabis, State of Oregon

Compound | Action Level (ppm) [1] | Water Soluble?
Cc1c(COC(=O)[C@@H]2[C@H](/C=C(\Cl)C(F)(F)F)C2(C)C)cccc1-c1ccccc1 (racemic) [Bifenthrin] | 0.2 ppm | –
CCCCCc1cc(O)c2c(c1)OC(C)(C)[C@H]1CCC(C)=C[C@@H]21 (relative stereo) [Delta-9-cis-tetrahydrocannabinol] | – | No
CCCCCc1cc(O)c2c(c1)OC(C)(C)C1=C2CC(C)(O)C(O)C1 (centres unmarked) [8,9-Dihydroxy-delta-6a-tetrahydrocannabinol] | – | No
CCCCCc1cc(O)c2c(c1)OC(C)(C)C1=C2C(OCC)C(C)(O)CC1 (centres unmarked) [10-Ethoxy-9-hydroxy-delta-6a-tetrahydrocannabinol] | – | No
CCCCCc1cc(O)c2c(c1)OC(C)(C)C1=C2C(=O)C(C)CC1 (centres unmarked) [10-Oxo-delta-6a-tetrahydrocannabinol] | – | No
COP(=O)(NC(C)=O)SC (centres unmarked) [Acephate] | 0.4 ppm | –
CCCCCCCCCCCCC1=C(OC(C)=O)C(=O)c2ccccc2C1=O [Acequinocyl] | 2 ppm | –
C/C(=N\C#N)N(C)Cc1ccc(Cl)nc1 [Acetamiprid] | 0.2 ppm | –
CNC(=O)O/N=C/C(C)(C)SC [Aldicarb] | 0.4 ppm | –
CO/C=C(/C(=O)OC)c1ccccc1Oc1cc(Oc2ccccc2C#N)ncn1 [Azoxystrobin] | 0.2 ppm | –
COc1ccc(-c2ccccc2)cc1NNC(=O)OC(C)C [Bifenazate] | 0.2 ppm | –
O=C(Nc1ccccc1-c1ccc(Cl)cc1)c1cccnc1Cl [Boscalid] | 0.4 ppm | –
CCCCCc1cc(O)c2c(c1)OC(C)(C)[C@H](CCC(C)=O)C2=O [Cannabichromanon] | – | No
CCCCCc1cc(O)c2c(c1)OC(C)(CCC=C(C)C)C=C2 (centres unmarked) [Cannabichromene] | – | No
CCCCCc1cc2c(c(O)c1C(=O)O)C=CC(C)(CCC=C(C)C)O2 (centres unmarked) [Cannabichromenic acid] | – | Yes
CCCc1cc(O)c2c(c1)OC(C)(CCC=C(C)C)C=C2 (centres unmarked) [Cannabichromevarin] | – | No
CCCc1cc2c(c(O)c1C(=O)O)C=CC(C)(CCC=C(C)C)O2 (centres unmarked) [Cannabichromevarinic acid] | – | No
CCCCCc1cc(O)c2c(c1)OC1(C)CCC3C1C2C3(C)C (centres unmarked) [Cannabicyclol] | – | No
CCCCCc1cc2c(c(O)c1C(=O)O)C1C3C(CCC3(C)O2)C1(C)C (centres unmarked) [Cannabicyclolic acid] | – | Yes
CCCc1cc(O)c2c(c1)OC1(C)CCC3C1C2C3(C)C (centres unmarked) [Cannabicyclovarin] | – | No
C=C(C)[C@@H]1CCC(C)=C[C@H]1c1c(O)cc(CCCCC)cc1OC [Cannabidiol monomethylether] | – | No
C=C(C)[C@@H]1CCC(C)=C[C@H]1c1c(O)cc(CCCCC)cc1O [Cannabidiol, reference compound] | – | No

Compound | Action Level (ppm) [1] | Water Soluble?
C=C(C)[C@@H]1CCC(C)=C[C@H]1c1c(O)cc(CCCCC)c(C(=O)O)c1O [Cannabidiolic acid] | – | No
C=C(C)[C@@H]1CCC(C)=C[C@H]1c1c(O)cc(C)cc1O [Cannabidiorcol] | – | No
C=C(C)[C@@H]1CCC(C)=C[C@H]1c1c(O)cc(CCC)cc1O [Cannabidivarin] | – | No
C=C(C)[C@@H]1CCC(C)=C[C@H]1c1c(O)cc(CCC)c(C(=O)O)c1O [Cannabidivarinic acid] | – | Yes
C=C(C)[C@@H]1CC[C@](C)(O)[C@H]2Oc3c(C(=O)O)c(CCCCC)cc(O)c3[C@@H]12 [Cannabielsoic acid B] | – | No
C=C(C)[C@@H]1CC[C@](C)(O)[C@H]2Oc3cc(CCCCC)c(C(=O)O)c(O)c3[C@@H]12 [Cannabielsoin acid A] | – | No
C=C(C)[C@@H]1CC[C@](C)(O)[C@H]2Oc3cc(CCCCC)cc(O)c3[C@@H]12 [Cannabielsoin] | – | No
CCCCCc1cc(O)c(C/C=C(\C)CCC=C(C)C)c(OC)c1 [Cannabigerol monomethylether] | – | No
CCCCCc1cc(O)c(C/C=C(\C)CCC=C(C)C)c(O)c1 [Cannabigerol] | – | No
CCCCCc1cc(OC)c(C/C=C(\C)CCC=C(C)C)c(O)c1C(=O)O [Cannabigerolic acid monomethylether] | – | Yes
CCCCCc1cc(O)c(C/C=C(\C)CCC=C(C)C)c(O)c1C(=O)O [Cannabigerolic acid] | – | Yes
CCCc1cc(O)c(C/C=C(\C)CCC=C(C)C)c(O)c1 [Cannabigerovarin] | – | No
CCCc1cc(O)c(C/C=C(\C)CCC=C(C)C)c(O)c1C(=O)O [Cannabigerovarinic acid] | – | Yes
CCCc1cc(O)c2c(c1)OC1(C)CCC(C(C)(C)O)C2C1 (centres unmarked) [Cannabiglendol] | – | No
C=C(C)c1ccc(C)cc1-c1c(O)cc(CCCCC)cc1O [Cannabinodiol] | – | No
C=C(C)c1ccc(C)cc1-c1c(O)cc(CCC)cc1O [Cannabinodivarin] | – | No
CCCCCc1cc(OC)c2c(c1)OC(C)(C)c1ccc(C)cc1-2 [Cannabinol methylether] | – | No
CCc1cc(O)c2c(c1)OC(C)(C)c1ccc(C)cc1-2 [Cannabinol-C2] | – | No
CCCCc1cc(O)c2c(c1)OC(C)(C)c1ccc(C)cc1-2 [Cannabinol-C4] | – | No
CCCCCc1cc2c(c(O)c1C(=O)O)-c1cc(C)ccc1C(C)(C)O2 [Cannabinolic acid] | – | Yes
CNC(=O)Oc1cccc2ccccc12 [Carbaryl] | 0.2 ppm | –
CNC(=O)Oc1cccc2c1OC(C)(C)C2 [Carbofuran] | 0.2 ppm | –

Compound | Action Level (ppm) [1] | Water Soluble?
CNC(=O)c1cc(Cl)cc(C)c1NC(=O)c1cc(Br)nn1-c1ncccc1Cl [Chlorantranili- prole] | 0.2 ppm | –
CCOCn1c(-c2ccc(Cl)cc2)c(C#N)c(Br)c1C(F)(F)F [Chlorfenapyr] | 1 ppm | –
CC1(C)C(C=C(Cl)Cl)C1C(=O)OC(C#N)c1ccc(F)c(Oc2ccccc2)c1 (centres unmarked) [Cyfluthrin] | 1 ppm | –
COP(=O)(OC)OC=C(Cl)Cl [DDVP (Dichlorvos)] | 0.1 ppm | –
CCOP(=S)(OCC)Oc1cc(C)nc(C(C)C)n1 [Diazinon] | 0.2 ppm | –
CNC(=O)CSP(=S)(OC)OC [Dimethoate] | 0.2 ppm | –
CCOc1ccc(C(C)(C)COCc2cccc(Oc3ccccc3)c2)cc1 [Etofenprox] | 0.4 ppm | –
CCOc1cc(C(C)(C)C)ccc1C1COC(c2c(F)cccc2F)=N1 (centres unmarked) [Etoxazole] | 0.2 ppm | –
CCOC(=O)NCCOc1ccc(Oc2ccccc2)cc1 [Fenoxycarb] | 0.2 ppm | –
Cc1nn(C)c(Oc2ccccc2)c1/C=N/OCc1ccc(C(=O)OC(C)(C)C)cc1 [Fenpyroximate] | 0.4 ppm | –
N#Cc1nn(-c2c(Cl)cc(C(F)(F)F)cc2Cl)c(N)c1[S+]([O-])C(F)(F)F (centres unmarked) [Fipronil] | 0.4 ppm | –
N#CCNC(=O)c1cnccc1C(F)(F)F [Flonicamid] | 1 ppm | –
N#Cc1c[nH]cc1-c1cccc2c1OC(F)(F)O2 [Fludioxonil] | 0.4 ppm | –
CC1C(c2ccc(Cl)cc2)SC(=O)N1C(=O)NC1CCCCC1 (centres unmarked) [Hexythiazox] | 1 ppm | –
C=CCOC(Cn1ccnc1)c1ccc(Cl)cc1Cl (centres unmarked) [Imazalil] | 0.2 ppm | –
O=[N+]([O-])NC1=NCCN1Cc1ccc(Cl)nc1 [Imidacloprid] | 0.4 ppm | –
CO/N=C(/C(=O)OC)c1ccccc1COc1ccccc1C [Kresoxim- methyl] | 0.4 ppm | –
CCCCC(CC)CN1C(=O)C2C3C=CC(C3)C2C1=O (centres unmarked) [MGK-264] | 0.2 ppm | –
CCOC(=O)CC(SP(=S)(OC)OC)C(=O)OCC (centres unmarked) [Malathion] | 0.2 ppm | –
COCC(=O)N(c1c(C)cccc1C)C(C)C(=O)OC (centres unmarked) [Metalaxyl] | 0.2 ppm | –
CNC(=O)Oc1cc(C)c(SC)c(C)c1 [Methiocarb] | 0.2 ppm | –
CNC(=O)ON=C(C)SC [Methomyl] | 0.4 ppm | –

Compound | Action Level (ppm) [1] | Water Soluble?
CCCCC(C#N)(Cn1cncn1)c1ccc(Cl)cc1 (centres unmarked) [Myclobutanil] | 0.2 ppm | –
COP(=O)(OC)OC(Br)C(Cl)(Cl)Br (centres unmarked) [Naled] | 0.5 ppm | –
CNC(=O)O/N=C(\SC)C(=O)N(C)C [Oxamyl] | 1 ppm | –
CC(C)(C)C(O)C(Cc1ccc(Cl)cc1)n1cncn1 (centres unmarked) [Paclobutrazol] | 0.4 ppm | –
CC1(C)C(C=C(Cl)Cl)C1C(=O)OCc1cccc(Oc2ccccc2)c1 (centres unmarked) [Permethrins] | 0.2 ppm | –
COP(=S)(OC)SCN1C(=O)c2ccccc2C1=O [Phosmet] | 0.2 ppm | –
C#CCC1=C(C)C(OC(=O)[C@@H]2[C@@H](C=C(C)C)C2(C)C)CC1=O (some centres unmarked) [Prallethrin] | 0.2 ppm | –
CCCC1COC(Cn2cncn2)(c2ccc(Cl)cc2Cl)O1 (centres unmarked) [Propiconazole] | 0.4 ppm | –
CNC(=O)Oc1ccccc1OC(C)C [Propoxur] | 0.2 ppm | –
CC(C)(C)c1ccc(CSc2cnn(C(C)(C)C)c(=O)c2Cl)cc1 [Pyridaben] | 0.2 ppm | –
Cc1cc(C)c(C2=C(OC(=O)CC(C)(C)C)C3(CCCC3)OC2=O)c(C)c1 [Spiromesifen] | 0.2 ppm | –
CCOC(=O)OC1=C(c2cc(C)ccc2C)C(=O)N[C@]12CC[C@@H](OC)CC2 [Spirotetramat] | 0.2 ppm | –
CCCN(CC)CC1COC2(CCC(C(C)(C)C)CC2)O1 (centres unmarked) [Spiroxamine] | 0.4 ppm | –
CC(C)(C)C(O)(CCc1ccc(Cl)cc1)Cn1cncn1 (centres unmarked) [Tebuconazole] | 0.4 ppm | –
N#C/N=C1\SCCN1Cc1ccc(Cl)nc1 [Thiacloprid] | 0.2 ppm | –
CN1COCN(Cc2cnc(Cl)s2)/C1=N\[N+](=O)[O-] [Thiamethoxam] | 0.2 ppm | –
CO/N=C(/C(=O)OC)c1ccccc1CO/N=C(\C)c1cccc(C(F)(F)F)c1 [Trifloxystrobin] | 0.2 ppm | –
Abamectin | 0.5 ppm | –
Pyrethrins | 1 ppm | –
Spinosad | 0.2 ppm | –
